Biological target: T1, Leishmania donovani HMG-CoA reductase (LdHMGR) (Leishmania donovani, UniProt A0A3S7X3U0)
T1 sequence (A0A3S7X3U0 1-434): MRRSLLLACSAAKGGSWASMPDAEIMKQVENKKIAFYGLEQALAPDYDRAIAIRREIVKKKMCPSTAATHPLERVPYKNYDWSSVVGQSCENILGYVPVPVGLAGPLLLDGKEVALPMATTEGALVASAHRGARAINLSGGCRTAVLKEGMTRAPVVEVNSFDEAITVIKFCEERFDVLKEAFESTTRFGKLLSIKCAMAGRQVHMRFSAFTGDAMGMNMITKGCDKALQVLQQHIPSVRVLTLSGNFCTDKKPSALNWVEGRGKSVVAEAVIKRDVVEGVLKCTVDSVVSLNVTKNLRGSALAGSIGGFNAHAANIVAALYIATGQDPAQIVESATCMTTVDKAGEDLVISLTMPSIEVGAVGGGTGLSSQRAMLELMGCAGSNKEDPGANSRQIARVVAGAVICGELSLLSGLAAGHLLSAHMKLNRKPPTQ
Assay: NADPH oxidation assay at […] nm with purified recombinant enzyme
Assay type: biochemical

IC50: 0.3 µM
SMILES: CC(C)c1c(C(=O)Nc2ccccc2)c(-c2ccccc2)c(-c2ccc(F)cc2)n1CC[C@@H](O)C[C@@H](O)CC(=O)O [Atorvastatin]

Source: paper PMC7094550 (Experimental Parasitology, 2017)
